Laboratory results taken from patent US20250296938A1, “Compounds that Interact with the Ras Superfamily for the Treatment of Cancers, Inflammatory Diseases, Rasopathies, and Fibrotic Disease” (SHY Therapeutics, LLC, priority 2018, published 2025).

Experiments:
[1] = test system: MAPK phosphorylation; experiment: Western MAPK cell-based phosphorylation assay, BxPC3; details: Homo sapiens; for inhibition at 10 µM: BXPC-3, 10 μM, 6 hours, EGF stimulation
Method: (§1) Cell lines: Human NSCLC cells NCI-H1975 and NCI-H1299, and tumor-derived pancreatic cancer cell lines Panc-1, MIA-PaCa-2, and BxPC3, were all purchased from American Type Culture Collection and grown in complete RPMI medium (BxPC3, NCI-H1975 and NCI-H1299) or DMEM-High Glucose (Panc1 and MIA-PaCa-2), supplemented with penicillin (100 U/mL), streptomycin (100 μg/mL), and 10% heat-inactivated FBS at 37° C. in a humidified incubator with 5% CO2.
(§2) Method: Cells were plated at 350000 cells/well density in a 12-well plate, allowed 3 hours to adhere to the plate, then starved in the appropriate medium in the presence of 0.5% FBS overnight. The small molecules to be tested were added to the cells in the final concentration of 10 μM in the presence of 0.3% DMSO for 6 hours incubation at 37° C. For IC50 value determination, serial dilutions of compounds were added to cells under the same conditions. Next, cells were stimulated with 1.5 ng/ml EGF for 15 minutes then cells were lysed with lysis buffer containing 1% Triton X-100, EDTA, and Halt™ Protease & Phosphatase Inhibitor Cocktail (Thermo Scientific). Protein concentration was assessed by BCA protein assay (Thermo Scientific). Phosphorylation level of MAPK was determined by western blot.
(§3) Western blot protocol: Equal amounts of protein (15-50 μg) were separated by SDS-PAGE and transferred to nitrocellulose membranes (Invitrogen by Thermo Fisher Scientific). The membrane was stained with Ponceau S Stain (Boston BioProducts) to verify uniform protein loading. Membranes were blocked with 10% milk and phosphorylation levels of MAPK were assessed by incubating overnight at 4° C. with anti-phospho-p44/42 (Thr202/Tyr204) antibody (Cell Signaling) followed by HRP-conjugated secondary antibody (Jackson Immunoresearch, West Grove, PA). Bands were incubated in Amersham ECL Prime Western Blotting Detection Reagent (GE Healthcare) and visualized using the ChemiDoc MP imaging system (Bio-Rad).

[2] = test system: MAPK phosphorylation; experiment: Western MAPK cell-based phosphorylation assay, NCI H1975; details: Homo sapiens; for inhibition at 10 µM: 6 hours, EGF stimulation
Method: as §1, §2, §3

[3] = test system: MAPK phosphorylation; experiment: Western MAPK cell-based phosphorylation assay, NCI H1299; details: Homo sapiens; for inhibition at 10 µM: 6 hours, EGF stimulation
Method: as §1, §2, §3

[4] = test system: AKT phosphorylation; experiment: Western AKT cell-based phosphorylation assay, PANC-1; details: Homo sapiens, 6 hours, EGF stimulation, PANC-1
In short: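 PANC-1 cells, serum-starved overnight in 0.5% FBS, were treated with compound at 10 μM (0.3% DMSO) for 6 h at 37 °C and then stimulated with 1.5 ng/ml EGF for 15 min. Lysates (15–50 μg) were immunoblotted for phospho-Akt Ser473, with ECL detection.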

[5] = test system: MAPK phosphorylation; experiment: MAPK cell-based phosphorylation assay (ELISA or Western), PANC-1; details: Homo sapiens, PANC-1; for inhibition at 10 µM: 6 hours, EGF stimulation
In short: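 Serum-starved (0.5% FBS overnight) cells given compound at 10 μM or serial dilutions (0.3% DMSO) for 6 h at 37 °C, then 1.5 ng/mL EGF for 15 min. Phospho-MAPK read by fixed-cell ELISA (fluorescence, 595 nm) or by Western blot of lysates with anti-phospho-p44/42 (Thr202/Tyr204).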

[6] = test system: MAPK phosphorylation; experiment: Western MAPK cell-based phosphorylation assay, MIA PaCa-2; details: Homo sapiens; for inhibition at 10 µM: 6 hours, EGF stimulation
Method: as §1, §2, §3

[7] = test system: MIA PaCa-2 pancreatic cancer cell line; experiment: Cell proliferation assay (DAPI); type: cell-based; details: Homo sapiens, MIA PaCa-2; for inhibition at 10 µM: 2-4 days, read-out: % Inhibition of cell proliferation, MIA PaCa-2 % inh
In short: (§4)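 NCI-H1975 cells in RPMI; PANC-1 and MIA PaCa-2 in DMEM-high glucose; BxPC3 in RPMI; all with 10% FBS. Compounds at 10 µM final (or serial dilutions for IC50), 0.3% DMSO, 2–4 days at 37 °C. Fixed, DAPI-stained, fluorescence read at 358/461 nm to give proliferation inhibition.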

[8] = test system: BxPC3 pancreatic cancer cell line; experiment: Cell proliferation assay (DAPI); type: cell-based; details: Homo sapiens, BXPC-3
In short: as §4

[9] = test system: PANC-1 pancreatic cancer cell line; experiment: Cell proliferation assay (DAPI); type: cell-based; details: Homo sapiens
In short: as §4

[10] = test system: NCI H1299 non-small-cell lung cancer cell line; experiment: Cell proliferation assay (DAPI); type: cell-based; details: Homo sapiens
[11] = test system: NCI H1975 non-small-cell lung cancer cell line; experiment: Cell proliferation assay (DAPI); type: cell-based; details: Homo sapiens
In short: as §4

SMILES | inhibition at 10 µM [1] [%] | inhibition at 10 µM [4] [%] | inhibition at 10 µM [5] [%] | inhibition at 10 µM [6] [%] | IC50 [7] [µM] | inhibition at 10 µM [7] [%] | IC50 [9] [µM] | IC50 [11] [µM] | further results
CO[C@H]1CCC(Nc2nc(-c3nccn3C)nc3sc(-c4ccn(C)n4)c(-c4ccccc4)c23)C1 (some centres unmarked) [drawing 406] | 76 to 100 | 76 to 100 | 76 to 100 | 76 to 100 | – | – | – | – | inhibition at 10 µM [2]: 76 to 100%; inhibition at 10 µM [3]: 76 to 100%
CO[C@@H]1CCC(Nc2nc(-c3nccn3C)nc3sc(-c4ccn(C)n4)c(-c4ccccc4)c23)C1 (some centres unmarked) [drawing 407] | 0 | 0 | 76 to 100 | 0 | – | – | – | – | inhibition at 10 µM [2]: 26 to 50%; inhibition at 10 µM [3]: 26 to 50%
COCC1CCN(c2nc(-c3nccn3C)nc3sc(-c4ccn(C)n4)c(-c4ccccc4)c23)C1 (centres unmarked) [drawing 408] | – | 0 | 76 to 100 | – | – | – | – | – | inhibition at 10 µM [3]: 26 to 50%
COCC(C)Nc1nc(-c2nccn2C)nc2sc(-c3ccccc3Cl)c(-c3cscn3)c12 (centres unmarked) [drawing 414] | 26 to 50 | 0 | 76 to 100 | 76 to 100 | – | – | – | – | –
COCC(C)Nc1nc(-c2nccn2C)nc2sc(-c3cccc(OC)c3)c(-c3cscn3)c12 (centres unmarked) [drawing 416] | 76 to 100 | 0 | 76 to 100 | 26 to 50 | – | – | – | – | –
COCCNc1nc(-c2nccn2C)nc2sc(-c3ccccc3Cl)c(-c3ccc(OC)cc3)c12 [drawing 418] | 0 | 0 | 76 to 100 | 76 to 100 | – | – | – | – | inhibition at 10 µM [2]: 0%; inhibition at 10 µM [3]: 0%
COCCNc1nc(-c2nccn2C)nc2sc(-c3cccc(OC)c3)c(-c3ccc(OC)cc3)c12 [drawing 419] | 0 | 0 | 76 to 100 | 76 to 100 | – | – | – | – | inhibition at 10 µM [2]: 76 to 100%; inhibition at 10 µM [3]: 0%
COCCNc1nc(-c2nccn2C)nc2sc(-c3cccc(OC)c3Cl)c(-c3ccc(OC)cc3)c12 [drawing 420] | 1 to 25 | 26 to 50 | 76 to 100 | 76 to 100 | – | – | – | – | inhibition at 10 µM [2]: 76 to 100%; inhibition at 10 µM [3]: 0%
COCCNc1nc(-c2nccn2C)nc2sc(-c3cc(OC)ccc3Cl)c(-c3ccc(OC)cc3)c12 [drawing 421] | 0 | 0 | 51 to 75 | 0 | – | – | – | – | –
COCCNc1nc(-c2cn(C)cn2)nc2sc(-c3ccccc3Cl)c(-c3ccc(OC)cc3)c12 [drawing 422] | 26 to 50 | 0 | 76 to 100 | 76 to 100 | – | – | – | – | inhibition at 10 µM [2]: 76 to 100%; inhibition at 10 µM [3]: 0%
COCCNc1nc(-c2nccn2C)nc2sc(-c3cccc(OC)c3Cl)c(-c3ccccc3)c12 [drawing 425] | 76 to 100 | 76 to 100 | 76 to 100 | 76 to 100 | – | – | – | – | inhibition at 10 µM [2]: 76 to 100%; inhibition at 10 µM [3]: 76 to 100%
COCCNc1nc(-c2nccn2C)nc2sc(-c3cc(OC)ccc3Cl)c(-c3ccccc3)c12 [drawing 426] | 26 to 50 | – | 51 to 75 | 76 to 100 | – | – | – | – | –
COCCNc1nc(-c2nccn2C)nc2sc(-c3cccc(OC)c3Cl)c(-c3ccccc3)c12 [drawing 472] | – | – | – | – | – | – | – | – | IC50 ([1]; BXPC-3): > 1 µM; IC50 [2]: > 1 µM; IC50 [3]: > 1 µM; IC50 [5]: 0.75 to 1 µM; IC50 [6]: 0.75 to 1 µM
CO[C@H]1CCC(Nc2nc(-c3nccn3C)nc3sc(-c4ccn(C)n4)c(-c4ccccc4)c23)C1 (some centres unmarked) [drawing 474] | – | – | – | – | – | – | – | – | IC50 [2]: > 1 µM; IC50 [5]: 0.75 to 1 µM; IC50 [6]: > 1 µM
COCCCNc1nc(-c2nccn2C)nc2sc(-c3ccn(C)n3)c(-c3ccccc3)c12 [drawing 542] | – | – | – | – | > 1 | 76 to 100 | 0.75 to 1 | – | IC50 [8]: 0.75 to 1 µM
COCC(C)Nc1nc(-c2nccn2C)nc2sc(-c3ccn(C)n3)c(-c3ccccc3)c12 (centres unmarked) [drawing 544] | – | – | – | – | > 1 | 76 to 100 | 0.75 to 1 | – | IC50 [8]: 0.75 to 1 µM
COC1CCN(c2nc(-c3nccn3C)nc3sc(-c4ccn(C)n4)c(-c4ccccc4)c23)C1 (centres unmarked) [drawing 545] | – | – | – | – | > 1 | 76 to 100 | 0.75 to 1 | – | IC50 [8]: > 1 µM
Cn1ccc(-c2sc3nc(-c4nccn4C)nc(NCC4CCOC4)c3c2-c2ccccc2)n1 (centres unmarked) [drawing 547] | – | – | – | – | > 1 | 76 to 100 | > 1 | – | IC50 [8]: > 1 µM
CO[C@H]1CCC(Nc2nc(-c3nccn3C)nc3sc(-c4ccn(C)n4)c(-c4ccccc4)c23)C1 (some centres unmarked) [drawing 548] | – | – | – | – | 0.5 to 0.749 | 76 to 100 | 0.5 to 0.749 | 0.5 to 0.749 | IC50 [10]: 0.75 to 1 µM; IC50 [8]: 0.5 to 0.749 µM
CO[C@@H]1CCC(Nc2nc(-c3nccn3C)nc3sc(-c4ccn(C)n4)c(-c4ccccc4)c23)C1 (some centres unmarked) [drawing 549] | – | – | – | – | 0.75 to 1 | 76 to 100 | 0.75 to 1 | 0.75 to 1 | IC50 [10]: 0.75 to 1 µM; IC50 [8]: 0.75 to 1 µM
COCC1CCN(c2nc(-c3nccn3C)nc3sc(-c4ccn(C)n4)c(-c4ccccc4)c23)C1 (centres unmarked) [drawing 550] | – | – | – | – | 0.75 to 1 | 76 to 100 | 0.5 to 0.749 | > 1 | IC50 [10]: > 1 µM; IC50 [8]: 0.75 to 1 µM
COCC(C)Nc1nc(-c2nccn2C)nc2sc(-c3ccccc3Cl)c(-c3cscn3)c12 (centres unmarked) [drawing 556] | – | – | – | – | – | 76 to 100 | – | > 1 | IC50 [10]: > 1 µM
COCC(C)Nc1nc(-c2nccn2C)nc2sc(-c3cccc(OC)c3)c(-c3cscn3)c12 (centres unmarked) [drawing 558] | – | – | – | – | – | 76 to 100 | 0.75 to 1 | > 1 | IC50 [10]: > 1 µM
COCCNc1nc(-c2nccn2C)nc2sc(-c3ccccc3Cl)c(-c3ccc(OC)cc3)c12 [drawing 560] | – | – | – | – | > 1 | 76 to 100 | – | 0.75 to 1 | –
COCCNc1nc(-c2nccn2C)nc2sc(-c3cccc(OC)c3)c(-c3ccc(OC)cc3)c12 [drawing 561] | – | – | – | – | > 1 | 76 to 100 | – | > 1 | –
COCCNc1nc(-c2nccn2C)nc2sc(-c3cccc(OC)c3Cl)c(-c3ccc(OC)cc3)c12 [drawing 562] | – | – | – | – | 0.75 to 1 | 76 to 100 | 0.5 to 0.749 | 0.75 to 1 | IC50 [10]: 0.75 to 1 µM; IC50 [8]: 0.75 to 1 µM
COCCNc1nc(-c2cn(C)cn2)nc2sc(-c3ccccc3Cl)c(-c3ccc(OC)cc3)c12 [drawing 564] | – | – | – | – | > 1 | 76 to 100 | – | > 1 | –
COCCNc1nc(-c2nccn2C)nc2sc(-c3cccc(OC)c3Cl)c(-c3ccccc3)c12 [drawing 567] | – | – | – | – | 0.75 to 1 | 76 to 100 | 0.75 to 1 | 0.75 to 1 | –
